Test results from patent US11135234B2, “Effective aminoglycoside antibiotic for multidrug-resistant bacteria” (MICROBIAL CHEMISTRY RESEARCH FOUNDATION, priority 2015, dated 2021).
Converted amounts (≈) assume the structure as drawn.

Columns and labels:
[1] = test system: S. aureus RN4220; assay: MIC, agar plate dilution method, S. aureus RN4220; format: cell-based, Staphylococcus aureus; settings: for MIC: Staphylococcus aureus, RN4220, S. aureus RN4220, Sensitive bacterium, read-out: minimal inhibitory concentration (MIC)
Method in brief: (§1)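 Minimal inhibitory concentration (μg/mL) was determined by agar plate dilution following the Japan Society of Chemotherapy method.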

[2] = test system: S. aureus RN4220/pMS520; assay: MIC, agar plate dilution method, S. aureus RN4220/pMS520; format: cell-based, Staphylococcus aureus; settings: for MIC: Staphylococcus aureus, MRSA, read-out: minimal inhibitory concentration (MIC), S. aureus RN4220/pMS520, MRSA
Method in brief: as §1

[3] = test system: S. aureus MF490; assay: MIC, agar plate dilution method, S. aureus MF490; format: cell-based, Staphylococcus aureus; settings: for MIC: Staphylococcus aureus, MRSA, read-out: minimal inhibitory concentration (MIC)
Method in brief: as §1

[4] = test system: E. faecium ATCC19434; assay: MIC, agar plate dilution method, E. faecium ATCC19434; format: cell-based, Enterococcus faecium; settings: for MIC: Enterococcus faecium, ATCC19434, E. faecium ATCC19434, read-out: minimal inhibitory concentration (MIC)
Method in brief: as §1

[5] = test system: E. coli JM109/pMW218; assay: MIC, agar plate dilution method, E. coli JM109/pMW218; format: cell-based, Escherichia coli; settings: for MIC: Escherichia coli, JM109/PMW218, E. coli JM109/pMW218, Sensitive bacterium, read-out: minimal inhibitory concentration (MIC)
Method in brief: as §1

[6] = test system: K. pneumoniae ATCC BAA-1705; assay: MIC, agar plate dilution method, K. pneumoniae ATCC BAA-1705; format: cell-based, Klebsiella pneumoniae; settings: for MIC: Klebsiella pneumoniae, ATCCBAA1705, K. pneumoniae ATCC BAA-1705, KPC-producing strain, read-out: minimal inhibitory concentration (MIC)
Method in brief: as §1

[7] = test system: K. pneumoniae ATCC BAA-2146; assay: MIC, agar plate dilution method, K. pneumoniae ATCC BAA-2146; format: cell-based, Klebsiella pneumoniae; settings: for MIC: Klebsiella pneumoniae, ATCCBAA2146, K. pneumoniae ATCC BAA-2146, NDM-producing strain, read-out: minimal inhibitory concentration (MIC)
Method in brief: as §1

[8] = test system: A. baumannii ATCC BAA-1710; assay: MIC, agar plate dilution method, A. baumannii ATCC BAA-1710; format: cell-based, Acinetobacter baumannii; settings: for MIC: Acinetobacter baumannii, ATCCBAA1710, A. baumannii ATCC BAA-1710, MDRA, read-out: minimal inhibitory concentration (MIC)
Method in brief: as §1

[9] = test system: S. marcescens TH-0447; assay: MIC, agar plate dilution method, S. marcescens TH-0447; format: cell-based, Serratia marcescens; settings: for MIC: Serratia marcescens, TH0447, S. marcescens TH-0447, AMK-resistant, read-out: minimal inhibitory concentration (MIC)
Method in brief: as §1

[10] = test system: S. marcescens GN6944; assay: MIC, agar plate dilution method, S. marcescens GN6944; format: cell-based, Serratia marcescens; settings: S. marcescens GN6944, GM-resistant; for MIC: Serratia marcescens, read-out: minimal inhibitory concentration (MIC)
Method in brief: as §1

[11] = test system: P. aeruginosa PAO1; assay: MIC, agar plate dilution method, P. aeruginosa PAO1; format: cell-based, Pseudomonas aeruginosa; settings: for MIC: Pseudomonas aeruginosa, PAO1, P. aeruginosa PAO1, Sensitive bacterium, read-out: minimal inhibitory concentration (MIC)
Method in brief: as §1

[12] = test system: P. aeruginosa PAO1/GN315; assay: MIC, agar plate dilution method, P. aeruginosa PAO1/GN315; format: cell-based, Pseudomonas aeruginosa; settings: for MIC: Pseudomonas aeruginosa, read-out: minimal inhibitory concentration (MIC), P. aeruginosa PAO1/GN315, AMK-resistant
Method in brief: as §1

[13] = test system: P. aeruginosa MSC17707; assay: MIC, agar plate dilution method, P. aeruginosa MSC17707; format: cell-based, Pseudomonas aeruginosa; settings: for MIC: Pseudomonas aeruginosa, MSC17707, P. aeruginosa MSC17707, AMK-resistant, read-out: minimal inhibitory concentration (MIC)
Method in brief: as §1

[14] = test system: P. aeruginosa MSC01035; assay: MIC, agar plate dilution method, P. aeruginosa MSC01035; format: cell-based, Pseudomonas aeruginosa; settings: P. aeruginosa MSC01035, ABK-resistant; for MIC: Pseudomonas aeruginosa, read-out: minimal inhibitory concentration (MIC)
Method in brief: as §1

CNC1C(O[C@H]2OC(CO)[C@@H](NC(=O)CN)[C@H](O)C2O)O[C@H]2C[C@H](N)[C@@H](O[C@@H]3C(N)C[C@@H](N)C[C@H]3O)OC2C1O (stereo partly drawn) [Compound V1-o, 6-deoxy-5-epi-4″-N-glycylapramycin]
MIC [1]: 1 µg/mL (≈ 1.72 µM)
MIC [2]: 1 µg/mL (≈ 1.72 µM)
MIC [3]: 4 µg/mL (≈ 6.89 µM)
MIC [4]: 8 µg/mL (≈ 13.8 µM)
MIC [5]: 0.5 µg/mL (≈ 0.861 µM)
MIC [6]: 1 µg/mL (≈ 1.72 µM)
MIC [7]: 1 µg/mL (≈ 1.72 µM)
MIC [8]: 4 µg/mL (≈ 6.89 µM)
MIC [9]: 8 µg/mL (≈ 13.8 µM)
MIC [10]: 4 µg/mL (≈ 6.89 µM)
MIC [11]: 2 µg/mL (≈ 3.44 µM)
MIC [12]: 2 µg/mL (≈ 3.44 µM)
MIC [13]: 2 µg/mL (≈ 3.44 µM)
MIC [14]: 4 µg/mL (≈ 6.89 µM)

CNCC(=O)N[C@@H]1C(CO)O[C@H](OC2O[C@H]3C[C@H](N)[C@@H](O[C@@H]4C(N)C[C@@H](N)C[C@H]4O)OC3C(O)C2NC)C(O)[C@H]1O (stereo partly drawn) [Compound V1-p, 6-deoxy-5-epi-4″-N-sarcosylapramycin]
MIC [1]: 1 µg/mL (≈ 1.68 µM)
MIC [2]: 1 µg/mL (≈ 1.68 µM)
MIC [3]: 4 µg/mL (≈ 6.73 µM)
MIC [4]: 8 µg/mL (≈ 13.5 µM)
MIC [5]: 1 µg/mL (≈ 1.68 µM)
MIC [6]: 1 µg/mL (≈ 1.68 µM)
MIC [7]: 1 µg/mL (≈ 1.68 µM)
MIC [8]: 4 µg/mL (≈ 6.73 µM)
MIC [9]: 8 µg/mL (≈ 13.5 µM)
MIC [10]: 4 µg/mL (≈ 6.73 µM)
MIC [11]: 2 µg/mL (≈ 3.36 µM)
MIC [12]: 4 µg/mL (≈ 6.73 µM)
MIC [13]: 2 µg/mL (≈ 3.36 µM)
MIC [14]: 4 µg/mL (≈ 6.73 µM)

CNC1C(O[C@H]2OC(CO)[C@@H](NC(=O)CCN)[C@H](O)C2O)O[C@H]2C[C@H](N)[C@@H](O[C@@H]3C(N)C[C@@H](N)C[C@H]3O)OC2C1O (stereo partly drawn) [Compound V1-q, 4″-N-(β-alanyl)-6-deoxy-5-epiapramycin]
MIC [1]: 1 µg/mL (≈ 1.68 µM)
MIC [2]: 1 µg/mL (≈ 1.68 µM)
MIC [3]: 4 µg/mL (≈ 6.73 µM)
MIC [4]: 8 µg/mL (≈ 13.5 µM)
MIC [5]: 1 µg/mL (≈ 1.68 µM)
MIC [6]: 1 µg/mL (≈ 1.68 µM)
MIC [7]: 1 µg/mL (≈ 1.68 µM)
MIC [8]: 4 µg/mL (≈ 6.73 µM)
MIC [9]: 8 µg/mL (≈ 13.5 µM)
MIC [10]: 4 µg/mL (≈ 6.73 µM)
MIC [11]: 2 µg/mL (≈ 3.36 µM)
MIC [12]: 4 µg/mL (≈ 6.73 µM)
MIC [13]: 2 µg/mL (≈ 3.36 µM)
MIC [14]: 4 µg/mL (≈ 6.73 µM)

CNC1C(O[C@H]2OC(CO)[C@@H](NC(=O)[C@@H](O)CN)[C@H](O)C2O)O[C@H]2C[C@H](N)[C@@H](O[C@@H]3C(N)C[C@@H](N)C[C@H]3O)OC2C1O (stereo partly drawn) [Compound V1-r, 6-deoxy-5-epi-4″-N-(L-isoseryl)apramycin]
MIC [1]: 1 µg/mL (≈ 1.64 µM)
MIC [2]: 1 µg/mL (≈ 1.64 µM)
MIC [3]: 4 µg/mL (≈ 6.55 µM)
MIC [4]: 8 µg/mL (≈ 13.1 µM)
MIC [5]: 0.5 µg/mL (≈ 0.819 µM)
MIC [6]: 1 µg/mL (≈ 1.64 µM)
MIC [7]: 1 µg/mL (≈ 1.64 µM)
MIC [8]: 4 µg/mL (≈ 6.55 µM)
MIC [9]: 8 µg/mL (≈ 13.1 µM)
MIC [10]: 8 µg/mL (≈ 13.1 µM)
MIC [11]: 2 µg/mL (≈ 3.28 µM)
MIC [12]: 2 µg/mL (≈ 3.28 µM)
MIC [13]: 2 µg/mL (≈ 3.28 µM)
MIC [14]: 4 µg/mL (≈ 6.55 µM)

CNC1C(O[C@H]2OC(CO)[C@@H](NC(=O)[C@H](O)CN)[C@H](O)C2O)O[C@H]2C[C@H](N)[C@@H](O[C@@H]3C(N)C[C@@H](N)C(O)[C@H]3O)OC2C1O (stereo partly drawn) [Compound V1-s, 5-epi-4″-N-(D-isoseryl)apramycin]
MIC [1]: 1 µg/mL (≈ 1.6 µM)
MIC [2]: 1 µg/mL (≈ 1.6 µM)
MIC [3]: 4 µg/mL (≈ 6.38 µM)
MIC [4]: 16 µg/mL (≈ 25.5 µM)
MIC [5]: 0.5 µg/mL (≈ 0.798 µM)
MIC [6]: 0.5 µg/mL (≈ 0.798 µM)
MIC [7]: 1 µg/mL (≈ 1.6 µM)
MIC [8]: 4 µg/mL (≈ 6.38 µM)
MIC [9]: 8 µg/mL (≈ 12.8 µM)
MIC [10]: 4 µg/mL (≈ 6.38 µM)
MIC [11]: 1 µg/mL (≈ 1.6 µM)
MIC [12]: 2 µg/mL (≈ 3.19 µM)
MIC [13]: 2 µg/mL (≈ 3.19 µM)
MIC [14]: 4 µg/mL (≈ 6.38 µM)

CNC1C(OC2OC(CO)C(NC(=N)N)C(O)C2O)OC2CC(N)C(OC3C(N)CC(N)C(O)C3N)OC2C1O (stereo not drawn) [Compound W2-a, 5-amino-4″-deamino-5-deoxy-5-epi-4″-guanidinoapramycin]
minimal inhibitory concentration (MIC) ([1]; S. aureus RN4220, Sensitive bacterium): 1 µg/mL (≈ 1.72 µM)
minimal inhibitory concentration (MIC) ([2]; S. aureus RN4220/pMS520, MRSA): 1 µg/mL (≈ 1.72 µM)
minimal inhibitory concentration (MIC) ([3]; S. aureus MF490, MRSA): 4 µg/mL (≈ 6.89 µM)
minimal inhibitory concentration (MIC) ([4]; E. faecium ATCC19434): 8 µg/mL (≈ 13.8 µM)
minimal inhibitory concentration (MIC) ([5]; E. coli JM109/pMW218, Sensitive bacterium): 1 µg/mL (≈ 1.72 µM)
minimal inhibitory concentration (MIC) ([6]; K. pneumoniae ATCC BAA-1705, KPC-producing strain): 1 µg/mL (≈ 1.72 µM)
minimal inhibitory concentration (MIC) ([7]; K. pneumoniae ATCC BAA-2146, NDM-producing strain): 1 µg/mL (≈ 1.72 µM)
minimal inhibitory concentration (MIC) ([8]; A. baumannii ATCC BAA-1710, MDRA): 8 µg/mL (≈ 13.8 µM)
minimal inhibitory concentration (MIC) ([9]; S. marcescens TH-0447, AMK-resistant): 4 µg/mL (≈ 6.89 µM)
minimal inhibitory concentration (MIC) [10]: 4 µg/mL (≈ 6.89 µM)
minimal inhibitory concentration (MIC) ([11]; P. aeruginosa PAO1, Sensitive bacterium): 4 µg/mL (≈ 6.89 µM)
minimal inhibitory concentration (MIC) ([12]; P. aeruginosa PAO1/GN315, AMK-resistant): 4 µg/mL (≈ 6.89 µM)
minimal inhibitory concentration (MIC) ([13]; P. aeruginosa MSC17707, AMK-resistant): 8 µg/mL (≈ 13.8 µM)
minimal inhibitory concentration (MIC) [14]: 4 µg/mL (≈ 6.89 µM)
